The test system of one data set is inducible Hsp70 (HSP72). Briefly: HSP72 western blot in heat-treated HeLa cells. Type of data set: cell-based, human. Here is the method:
(§1) FIG. 4. (A) rluc, hspa7 and hspa1a mRNA levels in Z74 cells mock-exposed (−) or exposed to the indicated concentrations of compounds 058 or 115 for 2 hours, heat-treated (HS) at 43° C. for 30 min and post-incubated for one hour at 37° C. mRNA levels were quantified by reverse transcription-real-time PCR. (B) HSP72 levels in HeLa cells mock-exposed (−) or exposed to the indicated concentrations of compounds 058 or 115 for 2 hours, heat-treated (HS) at 43° C. for 30 min and post-incubated for 6 hours at 37° C. HSP72 levels were estimated by HSP72 WB. GAPDH levels served as “loading controls”.

For the next data set, the system named is hspa1a. Briefly: Reverse transcription real-time PCR of hspa1a mRNA in Z74 cells. The conditions noted are these: heat-treated, somewhat less sensitive than rluc gene. Type of data set: cell-based, human. Here is the method:
as §1
(§2) To assess the transcriptional effects of the IHSF, cultures of Z74 cells were exposed for two hours to IHSF 058 or IHSF 115 at different concentrations, or to vehicle. Following heat treatment and a one-hour post-incubation at 37° C., extracts were prepared, and polyadenylated rluc, hsp70b (hspa7) and hspa1a RNA was quantified by reverse transcription and real-time PCR. […] IHSF 115 had somewhat more important effects than IHSF 058. […] We tend to discount the possibility that the latter data report effects on transcript stability.

The target in data set [1] is T1, HSF1 DNA-binding activity (Homo sapiens, UniProt Q00613).
T1 construct: functionally linked to an hsp70b promoter and therefore controlled by endogenous HSF1; endogenous in cells; host or cells: HeLa cells / HeLa-derived cell line Z74
The data set is described as follows: EMSA of extracts of heat-treated HeLa cells exposed to compound. It is filed as cell-based. The conditions noted are these: HeLa cells exposed to different concentrations, heat-treated 43° C./30 min; effect of IHSF 058 at 25 or 50 μM. The protocol: FIG. 3. (A) HeLa cell cultures were mock-treated (−) or exposed for 2 hours to the indicated concentrations of compounds 058 or 115 and then heat-treated (HS) at 43° C. for 30 min. Top panels: HSF1 DNA-binding activities in cell extracts were determined by EMSA. The panels show the major HSF1-HSE DNA probe complexes. Middle panels: HSF1 levels assayed by western blot (WB). GAPDH served as a loading control. Bottom panels: HSF1 homooligomerization. Aliquots of extracts were EGS-treated and then analyzed by anti-HSF1 WB. The positions of pre-stained molecular weight marker proteins (MW, in thousands) are indicated to the right. Asterisks indicate the positions of monomeric and trimeric HSF1, respectively. (B) Relative occupancy of the hspa1a promoter was assessed by chromatin immunoprecipitation assay of HeLa cell cultures mock-treated (−) or treated with compounds 058 or 115 at 12.5 μM concentrations for 2 hours and then heat-treated (HS) at 43° C. for 30 min. Chromatin fragments were immunoprecipitated using HSF1 antibodies or an F4/80 LR (control) antibody, and associated hspa1a promoter DNA was quantified by real-time PCR. […]

A short description of data set [2]: Aqueous solubility (statement). It is filed as physicochemical.
A further data set has as its target T2, HSF1 oligomerization (Homo sapiens, UniProt Q00613).
T2 construct: functionally linked to an hsp70b promoter and therefore controlled by endogenous HSF1; endogenous in cells; host or cells: HeLa cells / HeLa-derived cell line Z74
Briefly: EGS cross-linking and anti-HSF1 western blot (HSF1 oligomerization). Type of data set: cell-based. Particulars: extracts of exposed, heat-treated HeLa cells. Here is the method: FIG. 3. (A) HeLa cell cultures were mock-treated (−) or exposed for 2 hours to the indicated concentrations of compounds 058 or 115 and then heat-treated (HS) at 43° C. for 30 min. Top panels: HSF1 DNA-binding activities in cell extracts were determined by EMSA. The panels show the major HSF1-HSE DNA probe complexes. Middle panels: HSF1 levels assayed by western blot (WB). GAPDH served as a loading control. Bottom panels: HSF1 homooligomerization. Aliquots of extracts were EGS-treated and then analyzed by anti-HSF1 WB. The positions of pre-stained molecular weight marker proteins (MW, in thousands) are indicated to the right. Asterisks indicate the positions of monomeric and trimeric HSF1, respectively. (B) Relative occupancy of the hspa1a promoter was assessed by chromatin immunoprecipitation assay of HeLa cell cultures mock-treated (−) or treated with compounds 058 or 115 at 12.5 μM concentrations for 2 hours and then heat-treated (HS) at 43° C. for 30 min. Chromatin fragments were immunoprecipitated using HSF1 antibodies or an F4/80 LR (control) antibody, and associated hspa1a promoter DNA was quantified by real-time PCR.
We also investigated whether the compounds were capable of interfering with HSF1 oligomerization. Aliquots of the extracts were subjected to cross-linking with EGS (ethylene glycolbis(succinimidylsuccinate)) and then re-analyzed by anti-HSF1 WB. […]

In data set [3] the test system is hsp70b/hspa7 promoter-driven rluc gene. The data set is described as follows: Reverse transcription real-time PCR of rluc mRNA in Z74 cells. Type of data set: cell-based, human. The conditions noted are these: for rluc mRNA levels at 1 μM: 1 μM concentrations of the IHSF; for transcript levels of the hsp70b/hspa7 promoter-driven rluc gene: 2 h exposure at different concentrations, heat treatment, 1 h post-incubation at 37° C. Here is the method: as §1, §2

The next data set deals with hspa7 (hsp70b). The data set is described as follows: Reverse transcription real-time PCR of hspa7 (hsp70b) mRNA in Z74 cells. Type of data set: cell-based, human. The conditions noted are these: heat-treated, somewhat less sensitive than rluc gene. The protocol:
as §1, §2

T2 sequence (Q00613 whole entry): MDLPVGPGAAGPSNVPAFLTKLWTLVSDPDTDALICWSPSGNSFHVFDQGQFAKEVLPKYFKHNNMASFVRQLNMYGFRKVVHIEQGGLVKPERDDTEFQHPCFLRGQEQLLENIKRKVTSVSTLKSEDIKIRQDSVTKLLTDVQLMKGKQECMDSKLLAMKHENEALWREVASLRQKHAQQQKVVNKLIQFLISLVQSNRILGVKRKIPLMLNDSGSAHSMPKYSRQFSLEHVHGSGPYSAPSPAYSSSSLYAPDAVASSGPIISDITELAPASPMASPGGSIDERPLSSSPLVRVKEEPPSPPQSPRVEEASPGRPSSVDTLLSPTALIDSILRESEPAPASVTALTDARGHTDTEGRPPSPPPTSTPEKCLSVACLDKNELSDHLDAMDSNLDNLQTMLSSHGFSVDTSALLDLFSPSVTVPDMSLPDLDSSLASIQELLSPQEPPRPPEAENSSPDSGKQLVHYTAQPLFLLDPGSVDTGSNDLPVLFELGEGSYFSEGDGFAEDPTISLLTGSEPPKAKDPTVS
T1 sequence (Q00613 whole entry): as above

As for `CN(C(=O)/C=C/C1=NCCCO1)c1ncc(-c2cccnc2)s1` [IHSF 115, (E)-3-(5,6-Dihydro-4H-[1,3]oxazin-2-yl)-N-methyl-N-(5-pyridin-3-yl-thiazol-2-yl)-acrylamide], the “heat-induced accumulation of inducible Hsp70 (WB)” value in the data set with inducible Hsp70 (HSP72) (3.125 μM) is on record as “detectable inhibitory effects”. Besides, the “heat-induced accumulation of inducible Hsp70 (WB)” value with inducible Hsp70 (HSP72) (6.25 μM) is reported as “more substantial effects”. Moreover, the hspa1a transcript accumulation entry with hspa1a is on record as “Dose-dependent inhibitory effects”. The “heat-induced HSF1 DNA-binding activity (EMSA)” value in data set [1] is on record as “failed to have a similar effect”. For the same molecule, in data set [2], the aqueous solubility result is given as “limited”. In addition, the “HSF1 oligomerization (EGS cross-linking, anti-HSF1 WB)” value at HSF1 oligomerization is on record as “No impairment of oligomerization”. Also, in data set [3], the “rluc mRNA levels at 1 μM” value was “substantially reduced” and the “transcript levels of the hsp70b/hspa7 promoter-driven rluc gene” value is given as “dose-dependent reduction”. The “hspa7 (hsp70b) transcript accumulation” value with hspa7 (hsp70b) is on record as “Dose-dependent inhibitory effects”.
For `CCOC(=O)/C=C/C(=O)Nc1ncc(-c2cccnc2)s1` [IHSF 058, (E)-3-(5-Pyridm-3-yl-thiazol-2-ylcarbamoyl)-acrylic acid ethyl ester], the “heat-induced accumulation of inducible Hsp70 (WB), relative effectiveness” value with inducible Hsp70 (HSP72) is recorded as “less effective than IHSF 115”. Also, in the data set on hspa1a, the hspa1a transcript accumulation entry is on record as “Dose-dependent inhibitory effects”. The “heat-induced HSF1 DNA-binding activity (EMSA)” value in data set [1] was “important reductions”. The aqueous solubility entry in data set [2] was “limited”. Besides, the “HSF1 oligomerization (EGS cross-linking, anti-HSF1 WB)” value on HSF1 oligomerization is “No impairment of oligomerization”. Moreover, in data set [3], the “rluc mRNA levels at 1 μM” value was “substantially reduced” and the “transcript levels of the hsp70b/hspa7 promoter-driven rluc gene” value was “dose-dependent reduction”. For the same molecule, the “hspa7 (hsp70b) transcript accumulation” value in the data set with hspa7 (hsp70b) is listed as “Dose-dependent inhibitory effects”.

For the origin of these results see patent publication US11597708B2, “Inhibitors of heat shock factors and uses thereof” (HSF Pharmaceuticals SA, priority 2016, dated 2023).
